Assay [1] has as its target Full length EN PA (influenza PA endonuclease) (Influenza A virus, UniProt P15659). Kind of assay: EN PA FRET inhibition assay. In kind it is biochemical. Conditions: FRET probe, mean of a minimum of two independent experiments, read-out: Potency (IC50 class, Table 3).
Assay [2] relates to Influenza strain A549_A/WSN/33 (H1N1). Kind of assay: Influenza antiviral assay (neuraminidase fluorescence readout). In kind it is cell-based, Influenza virus. Conditions: Influenza A virus, read-out: % Inhibition (EC50 class, Table 2).

A value given as a limit tells only on which side of the number the result lay.

Usually IC50 stands for the point on the concentration scale where inhibition reaches its midpoint. As a reminder, the EC50 is the midpoint of the concentration-response curve. Regarding `CN1CC(C(c2cccc(F)c2)c2cccc(F)c2)n2ncc(=O)c(O)c2C1=O` (centres unmarked) [Compound 22], the IC50 in assay [1] is < 250 nM. Moreover, the EC50 in assay [2] is < 20000 nM. With `CC#Cc1ccn([C@@H](c2ccccc2)[C@@H]2CN(C)C(=O)c3c(O)c(=O)cnn32)n1` [Compound 115-D], the IC50 in assay [1] was ≥ 1000 nM. Further, in assay [2], the EC50 was < 20000 nM. For `CC(C)N1CC(=C(c2ccccc2)c2ccccc2)n2ncc(=O)c(O)c2C1=O` [Compound 11], the IC50 in assay [1] is < 250 nM.

Consider `CC#Cc1ccn([C@@H](c2ccccc2)[C@H]2CN(C)C(=O)c3c(O)c(=O)cnn32)n1` [Compound 115-B], for which, in assay [1], the IC50 was < 250 nM. The EC50 in assay [2] is < 20000 nM. Take `C#Cc1cn(C(c2ccccc2)C2CN(C)C(=O)c3c(O)c(=O)cnn32)cn1` (centres unmarked) [Compound 116]: the IC50 in assay [1] was < 250 nM. Further, in assay [2], the EC50 was < 20000 nM. Turning to `CN1CC(C2c3cc(Cl)ccc3CCc3ccc(Cl)cc32)n2ncc(=O)c(O)c2C1=O` (centres unmarked) [Compound 52], the IC50 in assay [1] is < 250 nM. In addition, in assay [2], the EC50 is < 20000 nM.

For the compound `CCCN1C[C@H](C(c2ccccc2)c2ccccc2)n2ncc(=O)c(O)c2C1=O` [Compound 37-A], the IC50 in assay [1] was < 250 nM. Besides, the EC50 in assay [2] was < 20000 nM.

Turning to `Cc1cccc(C(c2cccc(C)c2)C2CN(C(C)C)C(=O)c3c(O)c(=O)cnn32)c1` (centres unmarked) [Compound 48], the IC50 in assay [1] is < 250 nM. For the same compound, the EC50 in assay [2] was < 20000 nM. On to `CN1C[C@@H]([C@H](c2ccccc2)c2cccc(OC3CC3)c2)n2ncc(=O)c(O)c2C1=O` [Compound 105-C], for which, in assay [1], the IC50 is 250 to 1000 nM. Besides, the EC50 in assay [2] is < 20000 nM. As to `CC(C)C(=O)Oc1c2n(ncc1=O)[C@@H](C(c1cccc(F)c1)c1cccc(F)c1)CN(C(C)C)C2=O` [Compound 70-A], the IC50 in assay [1] is < 250 nM. For the same compound, the EC50 in assay [2] was < 20000 nM. Take `CCOc1c2n(ncc1=O)[C@@H](C(c1cccc(F)c1)c1cccc(F)c1)CN(CC)C2=O` [Compound 85-A]: in assay [1], the IC50 was ≥ 1000 nM. The concentration for a half-maximal effect (EC50) in assay [2] fell in the range of 20000 to 100000 nM. Regarding `CN1CC(Cc2ccccc2)n2ncc(=O)c(O)c2C1=O` (centres unmarked) [Compound 2], the IC50 in assay [1] is < 250 nM. Take `CC(C)N1C[C@H](C2c3ccccc3CCc3ccccc32)n2ncc(=O)c(O)c2C1=O` [Compound 17-A]: the IC50 in assay [1] is < 250 nM. Regarding `CC(N1CC(=C(c2ccccc2)c2ccccc2)n2ncc(=O)c(O)c2C1=O)C(F)(F)F` (centres unmarked) [Compound 15], the IC50 in assay [1] was ≥ 1000 nM. In the case of `[2H]c1c([2H])c([2H])c(C(c2c([2H])c([2H])c([2H])c([2H])c2[2H])[C@H]2CN(C(C)C)C(=O)c3c(OC(=O)C(C)C)c(=O)cnn32)c([2H])c1[2H]` [Compound 130], the EC50 in assay [2] was < 20000 nM. On to `CCN1C[C@@H](C2c3ccccc3CCc3ccccc32)n2ncc(=O)c(O)c2C1=O` [Compound 14-B], for which the IC50 in assay [1] is < 250 nM. In the case of `CC(C)N1CC(C(c2cccc(Cl)c2)c2cccc(Cl)c2)n2ncc(=O)c(O)c2C1=O` (centres unmarked) [Compound 44], in assay [1], the IC50 was < 250 nM. Consider `Cc1ccccc1CC1CN(C)C(=O)c2c(O)c(=O)cnn21` (centres unmarked) [Compound 4], for which, in assay [1], the IC50 is < 250 nM. Regarding `CCN1C[C@@H]([C@@H](c2ccccc2)c2cccc(Cl)c2)n2ncc(=O)c(O)c2C1=O` [Compound 12-D], the IC50 in assay [1] was in the range of 250 to 1000 nM. The same measure, in the same setting: with `CC(C)N1C[C@@H](C(c2ccccc2)c2cccc(Cl)c2)n2ncc(=O)c(O)c2C1=O` (single isomer, unassigned) [Compound 82-B] the figure was 250 to 1000 nM. For the compound `CC(C)N1C[C@@H](C(c2cccc(F)c2)c2cccc(F)c2)n2ncc(=O)c(O)c2C1=O` [Compound 41-B], the IC50 in assay [1] lay in the range of 250 to 1000 nM. With `CCC(CC)N1CC(C(c2ccccc2)c2ccccc2)n2ncc(=O)c(O)c2C1=O` (centres unmarked) [Compound 43], in assay [1], the IC50 is < 250 nM. Regarding `CCN1C[C@@H]([C@H](c2ccccc2)c2cccc(Cl)c2)n2ncc(=O)c(O)c2C1=O` [Compound 12-E], the IC50 in assay [1] was < 250 nM.

Take `CCN1C[C@H](C(c2ccccc2)c2cccc(Cl)c2)n2ncc(=O)c(O)c2C1=O` (some centres unmarked) [Compound 12-C]: the IC50 in assay [1] is < 250 nM. Consider `CN1CC(CCc2ccccc2)n2ncc(=O)c(O)c2C1=O` (centres unmarked) [Compound 3], for which the IC50 in assay [1] was < 250 nM.

The record behind these values is patent US10980805B2, “Aza-pyridone compounds and uses thereof” (Janssen BioPharma, Inc., priority 2013, dated 2021).
